From the METLIN SMRT retention time set (Domingo-Almenara et al. 2019) come the findings set out here.

SMILES strings stand for the structures.

The nature of this data set: gradient 5% acetonitrile 3 min, to 50% in 2 min, to 85% in 15 min, held 3 min, 100 µL/min. The conditions noted are these: column: Zorbax Extend-C18 2.1 x 50 mm; eluents: water / acetonitrile, 0.1% formic acid. Summed up:
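Over 3 months, pure standards in mixtures of ~100 molecules were run by HPLC coupled to a quadrupole time-of-flight mass spectrometer in positive and negative ionization mode. The column was a Zorbax Extend-C18 (2.1 × 50 mm, 1.8 μm) at 100 μL/min, eluted with water and acetonitrile each holding 0.1% formic acid, with 40 μL dead and 900 μL dwell volumes. Retention time was determined from adduct peaks chosen by software and checked manually.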
In turn, `O=C(CN1CCC(c2nc(-c3ccc(F)cc3)no2)CC1)NC1CCCCC1` yielded an RP-LC retention time of 715 s. With `CCCNC(=O)CCNc1c(-c2ccccc2C)nc2cnccn12` the figure was 607 s; with `Cc1oc(-c2[nH]ncc2C(=O)N2CCCCC2)cc1S(=O)(=O)Nc1ccc(F)cc1`, 738 s. Next, `COc1cc(-c2noc(Cn3cnc4c(cnn4-c4ccccc4)c3=O)n2)cc(OC)c1OC`: 920 s. Next, `CCSc1nnc(-c2nn(C)c3c2CN(C(=O)c2c(F)cccc2Cl)CC3)n1C`: 768 s; `CCCC(NC(=O)Cc1cccs1)C(=O)Nc1nc2ccccc2[nH]1` (configuration not stated): 692 s. The compound `c1cc(-c2nc(-c3ccc(-c4csc(C5CC5)n4)cc3)no2)ccn1` registered an RP-LC retention time of 1290 s. The compound `O=C(CSc1ncnc2c1oc1ccccc12)Nc1nc2ccccc2s1` returned an RP-LC retention time of 902 s. Next, `CCN1CCC2(CC1)OC(=O)C(C)=C2C(=O)Nc1cc(Cl)c(OC)cc1OC`: 643 s; `O=C(Nc1nc(-c2ccccc2)cs1)c1c(-c2ccccc2)nc2n1CCS2(=O)=O`: 1010 s. Turning to `CCNc1cc(N2CCC(CCC(=O)NCc3cc(F)ccc3F)CC2)ncn1`, the RP-LC retention time stood at 666 s. Next, `CN1C(=O)c2cccnc2Sc2cc(NC(=O)c3cccs3)ccc21`: 745 s; `C=CCn1c(SCC(=O)OCC)nnc1-c1ccc([N+](=O)[O-])cc1`: 743 s; `CCCn1cc(CCNC(=O)Nc2c(C)cccc2C)c2cccnc21`: 736 s.

`O=C(Nc1ccccc1F)C1CCCN(S(=O)(=O)c2c[nH]c(C(=O)N3CCCC3)c2)C1` (configuration not stated): the RP-LC retention time came out at 772 s. Next, `COc1ccc(-c2nc(CS(=O)(=O)c3ccc(C)cc3)no2)c(C)c1`: 1010 s; `Cc1sc(C)c(C(=O)NC2(c3ccc(C(=O)O)cc3)CC2)c1Cc1ccc(C(F)(F)F)cc1`: 1070 s; `COc1ccc(-c2noc(Cc3nnc(-c4cccc(Br)c4)o3)n2)cc1OC`: 988 s. Regarding `O=C(Cn1nc(-c2cccnc2)ccc1=O)Nc1nc2ccccc2[nH]1`, the RP-LC retention time is 528 s. Next, `CCC1(C(=O)NCc2ccc(C(C)C)cc2)CCCCC(=O)N1` (configuration not stated): 814 s; `Cc1nn(-c2ccccc2)c(C)c1S(=O)(=O)N1CCC(C(=O)Nc2ccc3c(c2)OCO3)CC1`: 905 s. The compound `CN1CCC(NC(=O)c2ccc3c(c2)N(S(=O)(=O)c2ccccc2)CC3)CC1` came in with an RP-LC retention time of 610 s. Next, `Cc1ccc(NC(=O)C(=O)NCC2CCN(S(C)(=O)=O)CC2)cc1N1CCCC1=O`: 627 s. Next, `Cn1c(=O)oc2ccc(C(=O)Nc3nc4ccccc4s3)cc21`: 843 s; `O=C(C1CCN(S(=O)(=O)c2cc(-c3noc(C4CC4)n3)cs2)CC1)N1CCCC1`: 829 s. With `Cc1ccc(CNC(=O)Cn2cccc2-c2nc(-c3ccccc3)cs2)o1` the figure was 1050 s; with `COCCNC(=O)C(C)Sc1ccc(=O)n(-c2ccc(C)c(Cl)c2)n1` (configuration not stated), 731 s; with `Cc1noc2nc(C)n(CC(=O)NC(C)CCc3ccccc3)c(=O)c12` (configuration not stated), 842 s. With `CCCN1CCN(c2cc(C(=O)O)c3cc(NC(=O)c4cccc(Cl)c4)ccc3n2)CC1`, the RP-LC retention time is 654 s.

Take `COc1cccc(N2CCN(c3ccnc(SCC(=O)Nc4cc(F)ccc4Cl)n3)CC2)c1`: the RP-LC retention time was 836 s. `CC1CCN(C(=O)C2=NN(Cc3ccccc3F)c3ccccc3S2(=O)=O)CC1` came in with an RP-LC retention time of 1030 s.

Turning to `O=C(c1nccc2ccccc12)N1CCc2cc(-c3ccno3)ccc21`, the RP-LC retention time amounted to 1000 s.
